The subject of experiment [1] is NALM6 (Ph-negative acute lymphoblastic leukemia cell line). Description: CCK8 cell activity test, NALM6. The class given is cell-based. Conditions: GZD824 0-3 μM/L, 24 hours. On the procedure: 1.1 Two types of cells, i.e. NALM6 (Ph-negative acute lymphoblastic leukemia cell line) and SUPB15 (Ph-positive acute lymphoblastic leukemia cell line), were treated with GZD824 of different concentrations (0-3 μM/L) respectively. After 24 hours, CCK8 is added. The mixture was incubated for 2 hours, and then its absorption value at 450 nm was detected with a microplate reader. […] We plotted a chart of cell activity based on the growth inhibition function of GZD824 on these […] types of cells, which is as shown in FIG. 1.
Background: Formazan colour is commonly taken as a measure of viable cells.

The subject of experiment [2] is phosphorylated AKT. Description: Immunoblotting of NALM6 cells, phospho-AKT. Format: cell-based. Conditions: 3 μM/L, 1 μM/L, 24 hours. The method, then: 6.3 After treating NALM6 cells with GZD824 of different concentrations (3 μM/L, 1 μM/L) for 24 hours, the cells were collected and lysed. With immunoblotting method, anti-phospho-AKT, AKT and IRS1 antibodies were used to analyze the lysates.
(In general: Immunoblotting shows a protein as a band on a membrane.)

Experiment [3] has as its system SUPB15 cells. Nature of the experiment: Cell cycle by flow cytometry, SUPB15. Format: cell-based. As to conditions: 3 μM/L, 24 hours, vs DMSO. The method, then: (§1) 1.3 After treating the two types of cells, i.e. NALM6 and SUPB15, with GZD824 (3 μM/L) and DMSO respectively for 24 hours and then treating them with a cell cycle kit, the cell cycle was measured with flow cytometry. […] Please refer to FIG. 3 for the results.
For orientation: A flow cytometer gives signals particle by particle.

The test system of experiment [4] is CCND1 gene expression. Description: Fluorescence quantitative PCR in NALM6 cells, CCND1. The class given is cell-based. Conditions: 3 μM/L, 24 hours, vs DMSO. On the procedure: (§2) 5.2 After being treated with 3 μM/L GZD824 and DMSO for 24 hours, NALM6 cells were collected to 1 ml TRIzol to extract RNA and reversely transcribed into cDNA. The expressions of four genes, i.e. BCL-XL, CCND1, CDK4 and CCKN1A, in these two groups of cells were detected with the fluorescence quantitative PCR method. […] From the molecular perspective, the mechanism of GZD824 killing leukemia cells can be explained. For the experimental results, please refer to FIG. 14.

The subject of experiment [5] is NALM6 cells. Description: Cell cycle by flow cytometry, NALM6. The class given is cell-based. Conditions: 3 μM/L, 24 hours, vs DMSO. The method, then: as §1
In experiment [6] the test system is human primary leukemia cells from P #1 PDX mouse spleen. Nature of the experiment: Apoptosis of human primary leukemia cells from P #1 PDX mouse spleen, with and without IGF-1. Format: cell-based. As to conditions: P #1 PDX spleen cells; GZD824 1 μM/L, 24 hours, vs DMSO. The method, then:
6.2 Human primary leukemia cells were extracted from P #1 PDX mouse spleen and co-cultured with DMSO, GZD824 (1 μM/L), IGF-1 (10 ng/mL), or GZD824 (1 μM/L) and IGF-1 (10 ng/mL) for 24 hours. The ratios of ANNEXIN V positive cells were analyzed by statistical methods. […] Please refer to FIG. 17 for the experimental results.

Experiment [7] relates to CCKN1A gene expression. Description: Fluorescence quantitative PCR in NALM6 cells, CCKN1A. Format: cell-based. As to conditions: 3 μM/L, 24 hours, vs DMSO. The method, then: as §2
The subject of experiment [8] is CDK4 gene expression. Nature of the experiment: Fluorescence quantitative PCR in NALM6 cells, CDK4. The class given is cell-based. As to conditions: 3 μM/L, 24 hours, vs DMSO. On the procedure: as §2
Experiment [9] concerns primary pre-B ALL PDX in immunodeficient mouse (NSI). Description: PDX mouse model, human CD45 positive cells by flow cytometry. Conditions: vs Imatinib and DMSO. Format: in vivo. On the procedure:
4.1 After administration, PDX mice originated from patient P #1 were executed. The mouse blood was treated with red blood cell lysate to obtain the peripheral blood leukocytes. The mouse spleen was ground with 100 mesh screen to obtain spleen single cells. The marrow cells in the mouse marrow were washed with 1 mL injector to obtain mouse marrow single cells. The obtained mouse peripheral blood leukocytes, mouse spleen single cells and mouse marrow single cells from the above-mentioned steps were stained with anti-CD45-PE antibody and detected with flow cytometry.
4.2 Using the same treatment method in FIG. 9, the ratios of CD45 positive cells in mouse blood, spleen and marrow were detected by flow cytometry and the ratios of CD45 positive cells in PDX mouse blood, spleen and marrow originated from different patients (P #1(B), P #2(C), P #3(D)) were obtained by statistical analysis. […] Please refer to FIG. 10 for the results.
4.3 Using the same treatment method in FIG. 9, PDX mice originated from patient P #4 were executed after administration. The ratios of human CD45 positive cells in mouse blood, spleen and marrow were analyzed. […] Please refer to FIG. 11 for the results.
4.4 Using the same treatment method in FIG. 9, the ratios of CD45 positive cells in mouse blood, spleen and marrow were detected with flow cytometry and the ratios of CD45 positive cells in PDX mouse blood, spleen and marrow originated from different patients (P #4(F) and P #5(G)) were obtained by statistical analysis. […] Please refer to FIG. 12 for the results.

Experiment [10] has as its system NALM6 cells. Nature of the experiment: Apoptosis kit (ANNEXIN V, PI) flow cytometry, NALM6. Format: cell-based. As to conditions: 24 hours. The method, then:
1.2 After treating NALM6 and SUPB15 cells respectively with GZD824 (3 μM, 1 μM) and DMSO of different concentrations for 24 hours, apoptosis was detected using an apoptosis kit (ANNEXIN V, PI). Please refer to FIG. 2 for the results. After treating the two types of cells NALM6 and SUPB15 respectively with GZD824 of different concentrations (3 μM/L, 1 μM/L) for 24 hours, the cells were stained with the apoptosis kit (ANNEXIN V, PI), and apoptosis was detected with flow cytometry.
5.3 After treating NALM6 cells with GZD824, SRC suppressor (KX2-391), STAT3 suppressor (HO-3867) or DMSO for 24 hours, apoptosis was detected by using the apoptosis kit (ANNEXIN V, PI). The ratio of ANNEXIN V positive cells was analyzed by statistical methods. […] For the experimental results, please refer to FIG. 15.

As for `Cc1ccc(C(=O)Nc2ccc(CN3CCN(C)CC3)c(C(F)(F)F)c2)cc1C#Cc1cnc2[nH]ncc2c1` [GZD824, (3-((1H-pyrazol[3,4-b]pyridine-5-substituted)ethinyl)-4-methyl-N-(4-((4-methylpiperazine-1-substituted)methyl)-3-(trifluoromethyl)phenyl)benzamide)], the “cell activity (CCK8, absorption at 450 nm)” value in experiment [1] was “prominently decrease the cell activity”. Moreover, in [2], the “expression of phosphorylated AKT” value is “down-regulate the expression”. The “ratio of cells at G0/G1 phase” value in experiment [3] and in experiment [5] was “increase the ratio of these two types of cells at G0/G1 phase” throughout. Besides, the “expression of CCND1 gene” value in experiment [4] is given as “down-regulated”. Further, the “apoptosis of primary leukemia cells (ANNEXIN V positive cells)” value in experiment [6] is given as “facilitate apoptosis of the primary leukemia cells”. Moreover, the “expression of CCKN1A gene” value in experiment [7] is on record as “up-regulated”. Further, in experiment [8], the “expression of CDK4 gene” value is “down-regulated”. Moreover, in [9] (PDX patient P #1, flow pattern), the “ratio of human CD45 positive cells in mouse blood, spleen and marrow” value is “prominently decrease the ratio of human CD45 positive cells in mouse blood, spleen and marrow”. The “ratio of human CD45 positive cells in mouse blood” value in experiment [9] (PDX patient P #4) is “prominently decrease the ratio of human CD45 positive cells in mouse blood”; in experiment [9] (PDX patients P #4 and P #5, statistical analysis), “prominently decrease the ratio of human CD45 positive cells in mouse blood”. Further, the “ratios of human CD45 positive cells in mouse blood, spleen and marrow” value in experiment [9] (PDX patients P #1, P #2, P #3, statistical analysis) was “prominently decrease the ratios of human CD45 positive cells in mouse blood, spleen and marrow”. Also, the “apoptosis (ANNEXIN V positive cells)” value in experiment [10] (3 μM, 1 μM, vs DMSO) is listed as “prominently enhance apoptosis”. Besides, the “ratio of apoptosis (ANNEXIN V positive cells), comparison of inhibitors” value in [10] (GZD824 vs KX2-391 vs HO-3867 vs DMSO) is reported as “highest ratio of apoptosis”.

The values are drawn from patent publication US20200330456A1, “NOVEL APPLICATION OF GZD824 AND PHARMACEUTICALLY ACCEPTABLE SALTS THEREOF IN TREATING DISEASES” (HEALTHQUEST PHARMA INC., priority 2016, published 2020).
